# In patent publication US5250283A, “Organic contrast agent analog and method of making same” (priority 1992, dated 1993):
# Read-outs that look alike come from different tables or passages of the source.
# How the values were obtained:
# [1] = Tissue distribution 90 min after i.v. TFA-IOP (100 umol/kg) or IOP (100 in text, 104 umol/kg in tables) in rats; assay type: in vivo; details: rat; for concentration at 1.5 h: 100 umol/kg; for concentration at 1.5 h / uMoles per gram tissue / uMoles per kg / Percentage of dose in tissue: i.v.; for Percentage of dose in tissue: Table 6; for tissue uptake at 1.5 h: read-out: Percentage of dose per gram
# Description: No standard curves were compiled for these tissues. The values given
# represent concentrations generated using the LIVER analysis routine and
# standard curve. Because this routine utilizes a control LIVER spectra for
# background modeling, erroneous Iodine concentration values for these
# tissues may result due to inappropriate background removal.
# [2] = Plasma concentration after i.v. IOP or TFA-IOP in rats; assay type: in vivo; details: plasma, iv, 100 umol/kg, rat
# [3] = Biliary excretion and bile flow after i.v. TFA-IOP (100 umol/kg) or IOP (100 in text, 104 umol/kg in tables) in rats; details: for Percentage of dose per kg. body wt.: rat bile; for Percentage of dose per kg. body wt. / Bile flow / Bile flow per kg b.w. / Bile flow per kg l.w.: i.v.
# Description: Tissues examined included liver, spleen, upper GI, lower GI, kidney, lung and heart. The length of each study was 90 minutes, during which time bile, urine and plasma samples were taken to monitor uptake and excretion. NMR relaxation rates for liver and plasma were also examined to note whether uptake of either compound might possible alter these parameters.
# [4] = Urinary excretion after i.v. IOP or TFA-IOP in rats; assay type: in vivo; details: rat
structure (smiles),measurement,setting,value
"CCC(Cc1c(I)cc(I)c(N)c1I)C(=O)O (centres unmarked) [IOP, iopanoic acid, reference compound]",concentration at 1.5 h,"[1]; heart, iv, 90 min, liver standard curve used, may be erroneous, read-out: Heart concentration",259 µM
same,uMoles per gram tissue,"[1]; 90 min, heart",.26 uMOLES per gram
same,uMoles per kg,"[1]; 90 min, heart",259.38 uMOLES per kg
same,Percentage of dose in tissue,"[1]; 90 min, heart",.72 PERCENTAGE OF DOSE
same,uMoles per gram tissue,"[1]; 90 min, kidney",.11 uMOLES per gram
same,uMoles per kg,"[1]; 90 min, kidney",105.40 uMOLES per kg
same,Percentage of dose in tissue,"[1]; 90 min, kidney",.69 PERCENTAGE OF DOSE
same,uMoles per gram tissue,"[1]; 90 min, liver",.51 uMOLES per gram
same,uMoles per kg,"[1]; 90 min, liver",511.90 uMOLES per kg
same,Percentage of dose in tissue,"[1]; 90 min, liver",14.52 PERCENTAGE OF DOSE
same,uMoles per gram tissue,"[1]; 90 min, lower GI",.14 uMOLES per gram
same,uMoles per kg,"[1]; 90 min, lower GI",135.23 uMOLES per kg
same,Percentage of dose in tissue,"[1]; 90 min, lower GI",.59 PERCENTAGE OF DOSE
same,uMoles per gram tissue,"[1]; 90 min, lung",.32 uMOLES per gram
same,uMoles per kg,"[1]; 90 min, lung",324.91 uMOLES per kg
same,Percentage of dose in tissue,"[1]; 90 min, lung",1.21 PERCENTAGE OF DOSE
same,uMoles per gram tissue,"[1]; 90 min, spleen",.26 uMOLES per gram
same,uMoles per kg,"[1]; 90 min, spleen",255.54 uMOLES per kg
same,Percentage of dose in tissue,"[1]; 90 min, spleen",.45 PERCENTAGE OF DOSE
same,uMoles per gram tissue,"[1]; 90 min, upper GI",.31 uMOLES per gram
same,uMoles per kg,"[1]; 90 min, upper GI",307.91 uMOLES per kg
same,Percentage of dose in tissue,"[1]; 90 min, upper GI",1.31 PERCENTAGE OF DOSE
same,% of dose in heart,"[1]; in vivo, iv, 90 min",0.72%
same,% of dose in kidney,"[1]; in vivo, iv, 90 min",0.69%
same,% of dose in liver,"[1]; in vivo, iv, 90 min",14.53%
same,% of dose in lower GI,"[1]; in vivo, iv, 90 min",0.59%
same,% of dose in lung,"[1]; in vivo, iv, 90 min",1.21%
same,% of dose in spleen,"[1]; in vivo, iv, 90 min",0.45%
same,% of dose in upper GI,"[1]; in vivo, iv, 90 min",1.31%
same,tissue uptake at 1.5 h,"[1]; in vivo, iv, 90 min, heart",0.61 %ID/g
same,tissue uptake at 1.5 h,"[1]; in vivo, iv, 90 min, kidney",0.25 %ID/g
same,tissue uptake at 1.5 h,"[1]; in vivo, iv, 90 min, liver",1.21 %ID/g
same,tissue uptake at 1.5 h,"[1]; in vivo, iv, 90 min, lower GI",0.32 %ID/g
same,tissue uptake at 1.5 h,"[1]; in vivo, iv, 90 min, lung",0.77 %ID/g
same,tissue uptake at 1.5 h,"[1]; in vivo, iv, 90 min, spleen",0.61 %ID/g
same,tissue uptake at 1.5 h,"[1]; in vivo, iv, 90 min, upper GI",0.73 %ID/g
same,concentration at 1.5 h,"[1]; kidney, iv, 90 min post injection, read-out: Kidney concentration",105 µM
same,concentration at 1.5 h,"[1]; kidney, iv, 90 min post injection, read-out: kidney concentration",105 µM
same,concentration at 1.5 h,"[1]; liver, iv, 90 min post injection, read-out: Liver concentration",512 µM
same,concentration at 1.5 h,"[1]; liver, iv, 90 min post injection, read-out: liver concentration",512 µM
same,concentration at 1.5 h,"[1]; lower gi, iv, 90 min, liver standard curve used, may be erroneous, read-out: Lower GI concentration",135 µM
same,concentration at 1.5 h,"[1]; lung, iv, 90 min, liver standard curve used, may be erroneous, read-out: Lung concentration",325 µM
same,concentration at 1.5 h,"[1]; spleen, iv, 90 min, liver standard curve used, may be erroneous, read-out: Spleen concentration",256 µM
same,concentration at 1.5 h,"[1]; upper gi, iv, 90 min, liver standard curve used, may be erroneous, read-out: Upper GI concentration",308 µM
same,concentration at 0.5 h,[2]; 30 min,557 µM
same,concentration at 50 min,[2]; 50 min,508 µM
same,concentration at 1 h,[2]; 60 min,462 µM
same,concentration at 70 min,[2]; 70 min,462 µM
same,concentration at 80 min,[2]; 80 min,404 µM
same,concentration at 1.5 h,[2]; 90 min,373 µM
same,Percentage of dose per kg. body wt.,[3]; 0-10 min,1.29 PERCENTAGE OF DOSE per kg. bod
same,Percentage of dose per kg. body wt.,[3]; 10-20 min,4.38 PERCENTAGE OF DOSE per kg. bod
same,Percentage of dose per kg. body wt.,[3]; 20-30 min,6.60 PERCENTAGE OF DOSE per kg. bod
same,Percentage of dose per kg. body wt.,[3]; 30-40 min,5.61 PERCENTAGE OF DOSE per kg. bod
same,Percentage of dose per kg. body wt.,[3]; 40-50 min,6.55 PERCENTAGE OF DOSE per kg. bod
same,Percentage of dose per kg. body wt.,[3]; 50-60 min,3.86 PERCENTAGE OF DOSE per kg. bod
same,Percentage of dose per kg. body wt.,[3]; 60-70 min,4.71 PERCENTAGE OF DOSE per kg. bod
same,Percentage of dose per kg. body wt.,[3]; 70-80 min,4.61 PERCENTAGE OF DOSE per kg. bod
same,Percentage of dose per kg. body wt.,[3]; 80-90 min,5.45 PERCENTAGE OF DOSE per kg. bod
same,Cmax at 1.5 h,"[3]; rat, bile, iv, 100 umol/kg",10000 µM
same,concentration at 5 min,"[3]; rat, bile, iv, 100 umol/kg",1610 µM
same,concentration at 10 min,"[3]; rat, bile, iv, 100 umol/kg",1610 µM
same,concentration at 0.25 h,"[3]; rat, bile, iv, 100 umol/kg",8660 µM
same,concentration at 20 min,"[3]; rat, bile, iv, 100 umol/kg",8660 µM
same,concentration at 25 min,"[3]; rat, bile, iv, 100 umol/kg",10500 µM
same,concentration at 0.5 h,"[3]; rat, bile, iv, 100 umol/kg",10500 µM
same,concentration at 35 min,"[3]; rat, bile, iv, 100 umol/kg",9850 µM
same,concentration at 40 min,"[3]; rat, bile, iv, 100 umol/kg",9850 µM
same,concentration at 50 min,"[3]; rat, bile, iv, 100 umol/kg",9670 µM
same,concentration at 55 min,"[3]; rat, bile, iv, 100 umol/kg",7320 µM
same,concentration at 1 h,"[3]; rat, bile, iv, 100 umol/kg",7320 µM
same,concentration at 65 min,"[3]; rat, bile, iv, 100 umol/kg",7530 µM
same,concentration at 70 min,"[3]; rat, bile, iv, 100 umol/kg",7530 µM
same,concentration at 1.25 h,"[3]; rat, bile, iv, 100 umol/kg",7760 µM
same,concentration at 80 min,"[3]; rat, bile, iv, 100 umol/kg",7760 µM
same,concentration at 85 min,"[3]; rat, bile, iv, 100 umol/kg",9560 µM
same,concentration at 1.5 h,"[3]; rat, bile, iv, 100 umol/kg",9560 µM
same,dose excreted at 1.5 h,"[3]; rat, bile, iv, 100 umol/kg",18%
same,Bile flow,"[3]; rat, 0-10 min",.01375 mL/min
same,Bile flow per kg b.w.,"[3]; rat, 0-10 min",.03386 ml/min per kg b.w.
same,Bile flow per kg l.w.,"[3]; rat, 0-10 min",1.147 ml/min per kg l.w.
same,Bile flow,"[3]; rat, 10-20 min",.00867 mL/min
same,Bile flow per kg b.w.,"[3]; rat, 10-20 min",.02136 ml/min per kg b.w.
same,Bile flow per kg l.w.,"[3]; rat, 10-20 min",.72404 ml/min per kg l.w.
same,Bile flow,"[3]; rat, 20-30 min",.01077 mL/min
same,Bile flow per kg b.w.,"[3]; rat, 20-30 min",.02652 ml/min per kg b.w.
same,Bile flow per kg l.w.,"[3]; rat, 20-30 min",.89866 ml/min per kg l.w.
same,Bile flow,"[3]; rat, 30-40 min",.00977 mL/min
same,Bile flow per kg b.w.,"[3]; rat, 30-40 min",.02406 ml/min per kg b.w.
same,Bile flow per kg l.w.,"[3]; rat, 30-40 min",.81528 ml/min per kg l.w.
same,Bile flow,"[3]; rat, 40-50 min",.01161 mL/min
same,Bile flow per kg b.w.,"[3]; rat, 40-50 min",.02861 ml/min per kg b.w.
same,Bile flow per kg l.w.,"[3]; rat, 40-50 min",.96953 ml/min per kg l.w.
same,Bile flow,"[3]; rat, 50-60 min",.00904 mL/min
same,Bile flow per kg b.w.,"[3]; rat, 50-60 min",.02225 ml/min per kg b.w.
same,Bile flow per kg l.w.,"[3]; rat, 50-60 min",.75417 ml/min per kg l.w.
same,Bile flow,"[3]; rat, 60-70 min",.01072 mL/min
same,Bile flow per kg b.w.,"[3]; rat, 60-70 min",.02640 ml/min per kg b.w.
same,Bile flow per kg l.w.,"[3]; rat, 60-70 min",.89457 ml/min per kg l.w.
same,Bile flow,"[3]; rat, 70-80 min",.01018 mL/min
same,Bile flow per kg b.w.,"[3]; rat, 70-80 min",.02506 ml/min per kg b.w.
same,Bile flow per kg l.w.,"[3]; rat, 70-80 min",.84942 ml/min per kg l.w.
same,Bile flow,"[3]; rat, 80-90 min",.00977 mL/min
same,Bile flow per kg b.w.,"[3]; rat, 80-90 min",.02407 ml/min per kg b.w.
same,Bile flow per kg l.w.,"[3]; rat, 80-90 min",.81586 ml/min per kg l.w.
same,dose excreted at 10 min,"[3]; rat, in vivo, iv, 100 umol/kg, Percentage of dose in bile sample, 0-10 min",0.52%
same,dose excreted at 20 min,"[3]; rat, in vivo, iv, 100 umol/kg, Percentage of dose in bile sample, 10-20 min",1.78%
same,dose excreted at 0.5 h,"[3]; rat, in vivo, iv, 100 umol/kg, Percentage of dose in bile sample, 20-30 min",2.68%
same,dose excreted at 40 min,"[3]; rat, in vivo, iv, 100 umol/kg, Percentage of dose in bile sample, 30-40 min",2.28%
same,dose excreted at 50 min,"[3]; rat, in vivo, iv, 100 umol/kg, Percentage of dose in bile sample, 40-50 min",2.66%
same,dose excreted at 1 h,"[3]; rat, in vivo, iv, 100 umol/kg, Percentage of dose in bile sample, 50-60 min",1.57%
same,dose excreted at 70 min,"[3]; rat, in vivo, iv, 100 umol/kg, Percentage of dose in bile sample, 60-70 min",1.91%
same,dose excreted at 80 min,"[3]; rat, in vivo, iv, 100 umol/kg, Percentage of dose in bile sample, 70-80 min",1.87%
same,dose excreted at 1.5 h,"[3]; rat, in vivo, iv, 100 umol/kg, Percentage of dose in bile sample, 80-90 min",2.21%
same,dose excreted at 10 min,"[3]; rat, in vivo, iv, 100 umol/kg, Percentage of dose running total in bile, through 0-10 min",0.52%
same,dose excreted at 20 min,"[3]; rat, in vivo, iv, 100 umol/kg, Percentage of dose running total in bile, through 10-20 min",2.3%
same,dose excreted at 0.5 h,"[3]; rat, in vivo, iv, 100 umol/kg, Percentage of dose running total in bile, through 20-30 min",4.98%
same,dose excreted at 40 min,"[3]; rat, in vivo, iv, 100 umol/kg, Percentage of dose running total in bile, through 30-40 min",7.26%
same,dose excreted at 50 min,"[3]; rat, in vivo, iv, 100 umol/kg, Percentage of dose running total in bile, through 40-50 min",9.92%
same,dose excreted at 1 h,"[3]; rat, in vivo, iv, 100 umol/kg, Percentage of dose running total in bile, through 50-60 min",11.5%
same,dose excreted at 70 min,"[3]; rat, in vivo, iv, 100 umol/kg, Percentage of dose running total in bile, through 60-70 min",13.4%
same,dose excreted at 80 min,"[3]; rat, in vivo, iv, 100 umol/kg, Percentage of dose running total in bile, through 70-80 min",15.3%
same,dose excreted at 1.5 h,"[3]; rat, in vivo, iv, 100 umol/kg, Percentage of dose running total in bile, through 80-90 min",17.5%
same,Urine concentration,[4]; 0-20 min,0 µM
same,Urine concentration,[4]; 20-40 min,0 µM
same,Urine concentration,[4]; 40-60 min,0 µM
same,Urine concentration,[4]; 60-80 min,0 µM
same,Urine concentration,[4]; 80-90 min,0 µM
